Laboratory results taken from patent publication US20240287124A1, “PRODRUGS OF 4'-SUBSTITUTED NUCLEOSIDE REVERSE TRANSCRIPTASE INHIBITORS” (Merck Sharp & Dohme LLC, priority 2023, published 2024).
In brackets after ≈: the same amount, converted by molar mass. Like-named read-outs stand apart in the source and are kept apart here.

Legend:
[1] = tested on: HIV-1 wild-type (R8) virus; assay: Viral KINetics in Green cells (VIKING) assay, HIV-1 replication in MT4-GFP reporter cells; type: cell-based; settings: Human immunodeficiency virus 1, 10% normal human serum, MT4-GFP cells, HIV-1 wild-type (R8); read-out: Viking (10% NHS), IC50
Experimental: Antiviral potency of the compounds was determined based on their ability to block HIV-1 replication in a GFP reporter cell line; this assay is referred to as Viral KINetics in Green cells or VIKING assay. HIV-1 replication was monitored using MT4-gag-GFP clone D3 (hereafter designate MT4-GFP) cells, which are MT4 cells modified to harbor a GFP reporter gene, the expression of which is dependent on the HIV-1 proteins tat and rev. (MT4 is a human T-cell line that is particularly sensitive to HIV-1 replication.) HIV-1 infection of MT4-GFP cells results in GFP expression approximately 24 h post-infection. MT4-GFP cells were maintained at 37° C./5% CO2/90% relative humidity in RPMI 1640 supplemented with 10% fetal bovine serum, 100 U/mL penicillin/streptomycin, and […] G418 to maintain the reporter gene. For infections, MT4-GFP cells were placed in the same medium lacking G418 and infected overnight with HIV-1 wild-type (R8) virus at an approximate multiplicity of infection of 0.01 in the same incubation conditions. Cells were then washed and resuspended in RPMI 1640 containing 10% normal human serum at 2×10^5 cells/mL. Compound plates were prepared by dispensing compounds dissolved in DMSO into wells of 384-well poly D lysine-coated plates (0.2 μl/well) using an ECHO acoustic dispenser. Each compound was tested in a 10-point serial 3-fold dilution (typical final concentrations: 4 μM-0.2 nM). Controls included no inhibitor (DMSO only) and a combination of three antiviral agents as a positive control (efavirenz, indinavir, and an integrase strand transfer inhibitor at final concentrations of 4 μM each). Infected cells were added (50 μL/well) to compound plates and were maintained at 37° C./5% CO2/90% relative humidity. Infected cells were quantified at two time points, approximately 48 h and 72 h post-infection, by counting the number of green cells in each well using an Acumen eX3 scanner. The increase in the number of green cells over ˜24 h period gives the reproductive ratio, R, which is calculated by dividing the number of green cells at 72 h over those at 48 h post-infection. The percent inhibition caused by a test compound is calculated using the following formula: […]
The dose-response curves of each test compound were plotted as % inhibition versus the compound concentration. IC50 values were determined by non-linear 4-parameter fitting of the dose-response curves.

[2] = Aqueous solubility in PBS, pH 7.4; type: physicochemical; settings: pH 7.4, aqueous buffer, thermodynamic from solid, pH 7.4 phosphate buffered saline, 24 hours, amorphous or crystalline material, read-out: Aqu. Solubility
Experimental: Aqueous solubility of the compounds was determined by suspending excess solid (typically 0.3-0.5 mg) in PBS, pH 7.4, at a concentration of 0.5 mg/mL. The suspension was vortexed for 10-30 seconds to wet the material and stirred at 600 rpm for 24 hours. For analysis by UPLC, 150 μL aliquot sample was transferred into a […] PVDF spin filter and centrifuged at 14,000 rpm for 5 minutes. 100 μL of the filtrate was diluted with 100 μL 1:1 Acetonitrile (ACN):H2O. The resultant samples were analyzed using UPLC and quantified against a standard curve of the compound of interest dissolved in 1:1 ACN:H2O. The retains of the solids were checked by XRPD and PLM to determine if the phase of the material was crystalline or amorphous.

## C#C[C@]1(COC(=O)OCc2oc(=O)oc2C)O[C@@H](n2ccc3c(N)nc(Cl)nc32)C[C@@H]1OC(=O)OCc1oc(=O)oc1C [Example 53, ((2R,3S,5R)-5-(4-amino-2-chloro-7H-pyrrolo[2,3-d]pyrimidin-7-yl)-2-ethynyl-3-((((5-methyl-2-oxo-1,3-dioxol-4-yl)methoxy)carbonyl)oxy)tetrahydrofuran-2-yl)methyl ((5-methyl-2-oxo-1,3-dioxol-4-yl)methyl) carbonate]
[1]
  IC50: 1.7 nM
[2]; phosphate buffered saline
  solubility at 24 h: < 1 µg/mL

## C#C[C@]1(COC(=O)OCc2ccccc2)O[C@@H](n2ccc3c(N)nc(Cl)nc32)C[C@@H]1OC(=O)OCc1ccccc1 [Example 214]
[1]
  IC50: 4.7 nM
[2]; phosphate buffered saline
  solubility at 24 h: < 1 µg/mL

## C#C[C@]1(COC(=O)OC(CC)CC)O[C@@H](n2ccc3c(N)nc(Cl)nc32)C[C@@H]1OC(=O)OC(CC)CC [Example 142]
[1]
  IC50: 1760 nM
[2]; phosphate buffered saline
  solubility at 24 h: < 1 µg/mL

## C#C[C@]1(CO)O[C@@H](n2ccc3c(N)nc(Cl)nc32)C[C@@H]1OC(=O)CC1CCCCC1 [Example 177]
[1]
  IC50: 8.5 nM
[2]; phosphate buffered saline
  solubility at 24 h: < 1 µg/mL

## C#C[C@]1(CO)O[C@@H](n2ccc3c(N)nc(Cl)nc32)C[C@@H]1OC(=O)CCC12CC3CC(CC(C3)C1)C2 [Example 30]
[1]
  IC50: 3.6 nM
[2]; phosphate buffered saline
  solubility at 24 h: < 1 µg/mL

## C#C[C@]1(COC(=O)c2ccccn2)O[C@@H](n2ccc3c(N)nc(Cl)nc32)C[C@@H]1OC(=O)c1ccccn1 [Example 49, (2R,3S,5R)-5-(4-amino-2-chloro-7H-pyrrolo[2,3-d]pyrimidin-7-yl)-2-ethynyl-2-((picolinoyloxy)methyl)tetrahydrofuran-3-yl picolinate]
[1]
  IC50: 7.5 nM
[2]; phosphate buffered saline
  solubility at 24 h: 49 µg/mL (≈ 94.4 µM)

## C#C[C@]1(CO)O[C@@H](n2ccc3c(N)nc(Cl)nc32)C[C@@H]1OC(=O)CCCC[C@@H]1SC[C@@H]2NC(=O)N[C@@H]21 [Example 184]
[1]
  IC50: 57 nM
[2]; phosphate buffered saline
  solubility at 24 h: 161 µg/mL (≈ 301 µM)

## C#C[C@]1(COC(=O)OCc2ccccc2)O[C@@H](n2ccc3c(N)nc(Cl)nc32)C[C@@H]1OC(C)=O [Example 193]
[1]
  IC50: 29 nM
[2]; phosphate buffered saline
  solubility at 24 h: 1.2 µg/mL (≈ 2.47 µM)

## C#C[C@]1(CO)O[C@@H](n2ccc3c(N)nc(Cl)nc32)C[C@@H]1OC(=O)OC(CC)CC [Example 84]
[1]
  IC50: 129 nM
[2]; phosphate buffered saline
  solubility at 24 h: 69 µg/mL (≈ 163 µM)

## C#C[C@]1(COC(=O)CCCCCC)O[C@@H](n2ccc3c(N)nc(Cl)nc32)C[C@@H]1O [Example 119]
[1]
  IC50: 3.5 nM
[2]; phosphate buffered saline
  solubility at 24 h: 57 µg/mL (≈ 135 µM)

## C#C[C@]1(CO)O[C@@H](n2ccc3c(N)nc(Cl)nc32)C[C@@H]1OC(=O)OCCCCC [Example 13, (2R,3S,5R)-5-(4-amino-2-chloro-7H-pyrrolo[2,3-d]pyrimidin-7-yl)-2-ethynyl-2-(hydroxymethyl)tetrahydrofuran-3-yl pentyl carbonate]
[1]
  IC50: 2.2 nM
[2]; phosphate buffered saline
  solubility at 24 h: 1.9 µg/mL (≈ 4.49 µM)

## C#C[C@]1(CO)O[C@@H](n2ccc3c(N)nc(Cl)nc32)C[C@@H]1OC(=O)Cc1ccc(Cl)cc1 [Example 32, (2R,3S,5R)-5-(4-amino-2-chloro-7H-pyrrolo[2,3-d]pyrimidin-7-yl)-2-ethynyl-2-(hydroxymethyl)tetrahydrofuran-3-yl 2-(4-chlorophenyl)acetate]
[1]
  IC50: 5.1 nM
[2]; phosphate buffered saline
  solubility at 24 h: 3.7 µg/mL (≈ 8.02 µM)

## C#C[C@]1(CO)O[C@@H](n2ccc3c(N)nc(Cl)nc32)C[C@@H]1OC(=O)C1CCCCC1 [Example 77]
[1]
  IC50: 5 nM
[2]; phosphate buffered saline
  solubility at 24 h: 14 µg/mL (≈ 33.4 µM)

## C#C[C@]1(COP(=O)(N[C@@H](C)C(=O)OC(C)C)Oc2ccc3ccccc3c2)O[C@@H](n2ccc3c(N)nc(Cl)nc32)C[C@@H]1O (stereo partly shown) [Example 75]
[1]
  IC50: 47 nM
[2]
  solubility at 24 h: 30 µg/mL (≈ 47.8 µM)

## C#C[C@]1(COC(=O)OCc2cc[nH]c(=O)c2)O[C@@H](n2ccc3c(N)nc(Cl)nc32)C[C@@H]1OC(=O)OCc1cc[nH]c(=O)c1 [Example 225]
[1]
  IC50: 13 nM
[2]; phosphate buffered saline
  solubility at 24 h: 70 µg/mL (≈ 115 µM)

## C#C[C@]1(CO)O[C@@H](n2ccc3c(N)nc(Cl)nc32)C[C@@H]1OC(=O)OCCCCC[C@@H]1SC[C@@H]2NC(=O)N[C@@H]21 [Example 160]
[1]
  IC50: 11 nM
[2]; phosphate buffered saline
  solubility at 24 h: < 1 µg/mL

## C#C[C@]1(CO)O[C@@H](n2ccc3c(NC(=O)CCCCCCCCC)nc(Cl)nc32)C[C@@H]1O [Example 197]
[1]
  IC50: 29 nM
[2]; phosphate buffered saline
  solubility at 24 h: < 1 µg/mL

## C#C[C@]1(COC(=O)OCCCCCCCCC)O[C@@H](n2ccc3c(N)nc(Cl)nc32)C[C@@H]1O [Example 126]
[1]
  IC50: 2.6 nM
[2]; phosphate buffered saline
  solubility at 24 h: 21 µg/mL (≈ 43.8 µM)

## C#C[C@]1(COC(=O)OCc2ccccc2)O[C@@H](n2ccc3c(N)nc(Cl)nc32)C[C@@H]1O [Example 114, ((2R,3S,5R)-5-(4-amino-2-chloro-7H-pyrrolo[2,3-d]pyrimidin-7-yl)-2-ethynyl-3-hydroxytetrahydrofuran-2-yl)methyl benzyl carbonate]
[1]
  IC50: 3.9 nM
[2]; phosphate buffered saline
  solubility at 24 h: 66 µg/mL (≈ 149 µM)

## C#C[C@]1(COC(=O)OCCCCCCCC)O[C@@H](n2ccc3c(N)nc(Cl)nc32)C[C@@H]1OC(=O)CC [Example 113]
[1]
  IC50: 26 nM
[2]; phosphate buffered saline
  solubility at 24 h: < 1 µg/mL

## C#C[C@]1(COC(=O)OCc2ccccc2)O[C@@H](n2ccc3c(N)nc(Cl)nc32)C[C@@H]1OC(=O)OCCCCCCCC [Example 213]
[1]
  IC50: 7.9 nM
[2]; phosphate buffered saline
  solubility at 24 h: < 1 µg/mL

## C#C[C@]1(CO)O[C@@H](n2ccc3c(N)nc(Cl)nc32)C[C@@H]1OC(=O)c1ccccn1 [Example 28, (2R,3S,5R)-5-(4-amino-2-chloro-7H-pyrrolo[2,3-d]pyrimidin-7-yl)-2-ethynyl-2-(hydroxymethyl)tetrahydrofuran-3-yl picolinate]
[1]
  IC50: 4.3 nM
[2]; phosphate buffered saline
  solubility at 24 h: 68 µg/mL (≈ 164 µM)

## C#C[C@]1(COC(=O)OC(CC)CC)O[C@@H](n2ccc3c(N)nc(Cl)nc32)C[C@@H]1O [Example 86]
[1]
  IC50: 13 nM
[2]; phosphate buffered saline
  solubility at 24 h: 145 µg/mL (≈ 343 µM)

## C#C[C@]1(CO)O[C@@H](n2ccc3c(N)nc(Cl)nc32)C[C@@H]1OC(=O)CCCOC(C)=O [Example 178]
[1]
  IC50: 3.8 nM
[2]; phosphate buffered saline
  solubility at 24 h: 143 µg/mL (≈ 327 µM)

## C#C[C@]1(CO)O[C@@H](n2ccc3c(N)nc(Cl)nc32)C[C@@H]1OC(=O)CCCCCC [Example 58, (2R,3S,5R)-5-(4-amino-2-chloro-7H-pyrrolo[2,3-d]pyrimidin-7-yl)-2-ethynyl-2-(hydroxymethyl)tetrahydrofuran-3-yl heptanoate]
[1]
  IC50: 1.9 nM
[2]; phosphate buffered saline
  solubility at 24 h: < 1 µg/mL

## C#C[C@]1(COC(=O)CCCC)O[C@@H](n2ccc3c(N)nc(Cl)nc32)C[C@@H]1OC(=O)OC [Example 189]
[1]
  IC50: 19 nM
[2]; phosphate buffered saline
  solubility at 24 h: 23 µg/mL (≈ 51 µM)

## C#C[C@]1(CO)O[C@@H](n2ccc3c(N)nc(Cl)nc32)C[C@@H]1OC(=O)CCCCCCC [Example 24, (2R,3S,5R)-5-(4-amino-2-chloro-7H-pyrrolo[2,3-d]pyrimidin-7-yl)-2-ethynyl-2-(hydroxymethyl)tetrahydrofuran-3-yl octanoate]
[1]
  IC50: 1.7 nM
[2]; phosphate buffered saline
  solubility at 24 h: < 1 µg/mL

## C#C[C@]1(COC(=O)CCCC[C@@H]2SC[C@@H]3NC(=O)N[C@@H]32)O[C@@H](n2ccc3c(N)nc(Cl)nc32)C[C@@H]1OC(=O)CCCC[C@@H]1SC[C@@H]2NC(=O)N[C@@H]21 [Example 74]
[1]
  IC50: 69 nM
[2]; phosphate buffered saline
  solubility at 24 h: < 1 µg/mL

## C#C[C@]1(CO)O[C@@H](n2ccc3c(NC(=O)Cc4ccccc4)nc(Cl)nc32)C[C@@H]1O [Example 199]
[1]
  IC50: 230 nM
[2]; phosphate buffered saline
  solubility at 24 h: 51 µg/mL (≈ 119 µM)
